Source: ChEMBL document CHEMBL3797118, “New Colchicine-Derived Triazoles and Their Influence on Cytotoxicity and Microtubule Morphology” (ACS Med Chem Lett, 2016)
pIC50: −log10 of the molar value. Calls of active or inactive are those of the source. The rule behind the calls is not given here.

What was measured:
[1] = Cytotoxicity against human THP1 cells after 24 hrs by Celltiter-Glo luminescent cell viability assay; format: functional, cell-based; details: THP-1, 24 h
[2] = Cytotoxicity against human SKMES1 cells after 48 hrs by Celltiter-Glo luminescent cell viability assay; format: functional, cell-based; details: SK-MES-1, 48 h
A549 = test: Cytotoxicity against human A549 cells after 48 hrs by Celltiter-Glo luminescent cell viability assay; format: functional, cell-based; details: A549, 48 h
MDA-MB-231 [3] = test: Inhibition of microtubule network formation in human MDA-MB-231 cells at 100 nM after 24 hrs by DAPI staining based immunofluorescence microscopic analysis; format: cell-based
Jurkat = test: Cytotoxicity against human Jurkat cells after 48 hrs by Celltiter-Glo luminescent cell viability assay; format: functional, cell-based
HeLa = test: Cytotoxicity against human HeLa cells after 48 hrs by Celltiter-Glo luminescent cell viability assay; format: functional, cell-based
H1975 = test: Inhibition of microtubule network formation in human H1975 cells assessed as centrosome declustering at 500 nM after 24 hrs by DAPI staining based immunofluorescence microscopic analysis; format: cell-based
MDA-MB-231 [4] = test: Inhibition of microtubule network formation in human MDA-MB-231 cells assessed as centrosome declustering at 100 nM after 24 hrs by DAPI staining based immunofluorescence microscopic analysis; format: cell-based

COc1cc2c(c(OC)c1OC)-c1ccc(OC)c(=O)cc1[C@@H](n1cc(COC(=O)CCNC(=O)OC(C)(C)C)nn1)CC2
pIC50 [1]: 8.24
pIC50 [2]: 8.02
pIC50 (A549): 7.60
inhibition (MDA-MB-231 [3]): Active
pIC50 (Jurkat): 8.30
pIC50 (HeLa; read-out: IC50): 7.70

COc1cc2c(c(OC)c1OC)-c1ccc(OC)c(=O)cc1[C@@H](n1cc(CNC(=O)OC(C)(C)C)nn1)CC2
pIC50 [1]: 7.64

COc1cc2c(c(OC)c1OC)-c1ccc(OC)c(=O)cc1[C@@H](n1cc(COC(=O)[C@H](Cc3ccccc3)NC(C)=O)nn1)CC2
pIC50 [1]: 7.59
pIC50 (Jurkat): 7.07

COc1cc2c(c(OC)c1OC)-c1ccc(OC)c(=O)cc1[C@@H](n1cc(CCCCC(=O)OCc3ccccc3)nn1)CC2
pIC50 [1]: 7.45
pIC50 (Jurkat): 7.78

COc1cc2c(c(OC)c1OC)-c1ccc(OC)c(=O)cc1[C@@H](n1cc(CCC(=O)OCc3ccc(F)cc3)nn1)CC2
pIC50 [1]: 8.29
pIC50 [2]: 8.46
pIC50 (A549): 8.26
inhibition (MDA-MB-231 [3]): Active
pIC50 (Jurkat): 8.54
pIC50 (HeLa; read-out: IC50): 8.31

COc1cc2c(c(OC)c1OC)-c1ccc(OC)c(=O)cc1[C@@H](n1cc(CCC(=O)OCc3cccc(F)c3)nn1)CC2
pIC50 [1]: 8.03
pIC50 (Jurkat): 8.31

COc1cc2c(c(OC)c1OC)-c1ccc(OC)c(=O)cc1[C@@H](n1cc(CCC(=O)OCc3ccccc3F)nn1)CC2
pIC50 [1]: 7.90
pIC50 (Jurkat): 8.01

COc1cc2c(c(OC)c1OC)-c1ccc(OC)c(=O)cc1[C@@H](N=[N+]=[N-])CC2
pIC50 [1]: 7.68

COc1cc2c(c(OC)c1OC)-c1ccc(OC)c(=O)cc1[C@@H](n1cc(CCC(=O)OCc3ccccc3)nn1)CC2
pIC50 [1]: 7.51

COc1cc2c(c(OC)c1OC)-c1ccc(OC)c(=O)cc1[C@@H](n1cc(COC(=O)[C@H](Cc3ccccc3)NC(=O)OCc3ccccc3)nn1)CC2
pIC50 [1]: 7.63
pIC50 (Jurkat): 7.67

CC[C@H](C)[C@H](NC(=O)OC(C)(C)C)C(=O)OCc1cn([C@H]2CCc3cc(OC)c(OC)c(OC)c3-c3ccc(OC)c(=O)cc32)nn1
pIC50 [1]: 7.76

COc1cc2c(c(OC)c1OC)-c1ccc(OC)c(=O)cc1[C@@H](n1cc(COC(=O)[C@H](CC(C)C)NC(=O)OC(C)(C)C)nn1)CC2
pIC50 [1]: 8.18

COc1cc2c(c(OC)c1OC)-c1ccc(OC)c(=O)cc1[C@@H](n1cc(COC(=O)[C@H](Cc3ccccc3)NC(=O)OC(C)(C)C)nn1)CC2
inhibition (H1975): Active
pIC50 [1]: 8.39
pIC50 [2]: 7.41
pIC50 (A549): 7.13
inhibition (MDA-MB-231 [4]): Active
inhibition (MDA-MB-231 [3]): Active
pIC50 (Jurkat): 7.82
pIC50 (HeLa; read-out: IC50): 7.15

COc1cc2c(c(OC)c1OC)-c1ccc(OC)c(=O)cc1[C@@H](NC(C)=O)CC2 [COLCHICINE]
pIC50 [1]: 7.69
pIC50 [2]: 7.73
pIC50 (A549): 7.62
inhibition (MDA-MB-231 [3]): Active
pIC50 (HeLa; read-out: IC50): 7.66

COc1cc2c(c(OC)c1OC)-c1ccc(OC)c(=O)cc1[C@@H](n1cc(COC(=O)[C@@H](N)Cc3ccccc3)nn1)CC2
pIC50 [1]: 7.62
pIC50 (Jurkat): 7.60

COc1cc2c(c(OC)c1OC)-c1ccc(OC)c(=O)cc1[C@@H](n1cc(C(=O)OCc3ccccc3)nn1)CC2
pIC50 [1]: 6.85

COc1cc2c(c(OC)c1OC)-c1ccc(OC)c(=O)cc1[C@@H](n1cc(COC(=O)CCCCCNC(=O)OC(C)(C)C)nn1)CC2
pIC50 [1]: 8.27
pIC50 (Jurkat): 8.03

COc1cc2c(c(OC)c1OC)-c1ccc(OC)c(=O)cc1[C@@H](n1cc(COC(=O)[C@@H](NC(=O)OC(C)(C)C)C(C)C)nn1)CC2
pIC50 [1]: 8.09

COc1cc2c(c(OC)c1OC)-c1ccc(OC)c(=O)cc1[C@@H](n1cc(COC(=O)[C@H](Cc3c[nH]c4ccccc34)NC(=O)OC(C)(C)C)nn1)CC2
pIC50 [1]: 8.14

CC(=O)O[C@H]1C(=O)[C@@]2(C)[C@H]([C@H](OC(=O)c3ccccc3)[C@]3(O)C[C@H](OC(=O)[C@H](O)[C@@H](NC(=O)c4ccccc4)c4ccccc4)C(C)=C1C3(C)C)[C@]1(OC(C)=O)CO[C@@H]1C[C@@H]2O [PACLITAXEL]
pIC50 [2]: 7.87
pIC50 (A549): 7.88
inhibition (MDA-MB-231 [3]): inactive
pIC50 (HeLa): 7.72

COc1cc2c(c(OC)c1OC)-c1ccc(OC)c(=O)cc1[C@@H](n1cc(COC(=O)[C@H](CCSC)NC(=O)OC(C)(C)C)nn1)CC2
pIC50 [1]: 7.97
